Measurements published in article PMC11211886 (Frontiers in Pharmacology, 2024).
Like-named read-outs stand apart in the source and are kept apart here.

Assays:
[1] = Single-dose PK in SD rats (IV/PO); design: species or system SD rat; conditions: in vivo
Excerpt: For the single-dose PK study, twenty-four rats were divided into four groups, with six rats (male: female = 1:1) in each group.

CYP2B6 = conditions: male, human, 48 h
Description: […] […] […] Enzyme activity for each CYP isoform was reported as a fold change over vehicle control and the percent of positive control (detailed calculation in Supplementary 1.1). Hepatocytes were harvested with a lysis buffer from RNeasy 96 Kit (Qiagen Inc., Germantown, MD, USA) to isolate RNA, which was analyzed by real-time quantitative polymerase chain reaction (RT-PCR). […] Emax (the maximal observed induction) and EC50 (the concentration that supports half-maximal induction) were estimated by non-linear regression of fold increase in CYP mRNA expression versus concentration plots.
The fold of vehicle control and the percent of positive control were calculated with the formulas below:
Fold of vehicle control = CYPs activity of test compound (or positive control) treated sample / CYPs activity of vehicle control treated sample
% of positive control = [(fold change in treated sample)-1] / [(fold change in positive control)-1] × 100
Based on the enzyme activity, a minimum of 2-fold increase compared to vehicle control for the positive control and ≥40% of the positive control for the test article was considered as the cutoff for a positive signal in in vitro induction assay.

[2] = Single-dose PK and food effect in beagle dogs (IV/PO); design: species or system beagle dog; conditions: in vivo; for AUC(0-inf): AUC0-inf
Description: Twelve beagle dogs (6-10 kg, male: female = 1:1) purchased from Beijing Marshall Biotechnology Co. Ltd. (Beijing, China) were enrolled in a three-period self-control cross-over study with a washout time of 1 week. […] In Period 1 and Period 2, dogs were fasted overnight until dosing. […] Approximately 1.0 mL of blood was collected per time point from the jugular vein using a 2 mL injector and transferred to a 3 mL tube that contained sodium heparin. The collected blood samples were centrifuged at 3,500 g for 5 min at 4°C to collect plasma within 30 min after sample collection. […] Animals were fasted overnight and for approximately 4 h post-dose. […] At each time point, approximately 1.0 mL of blood was collected from the femoral vein and transferred into an individual tube that contained sodium heparin. The blood samples were centrifuged at 3,500 g for 5 min at 4°C to harvest plasma.

P-gp = P-gp (Homo sapiens, UniProt P08183); assay: P-gp inhibition, digoxin transport across Caco-2 monolayers
Excerpt: (§1) The experimental conditions were similar to those of the permeability study.

BCRP = target: T1, BCRP (Homo sapiens, UniProt Q9UNQ0); assay: in vitro; conditions: human
T1 sequence (Q9UNQ0 1-655): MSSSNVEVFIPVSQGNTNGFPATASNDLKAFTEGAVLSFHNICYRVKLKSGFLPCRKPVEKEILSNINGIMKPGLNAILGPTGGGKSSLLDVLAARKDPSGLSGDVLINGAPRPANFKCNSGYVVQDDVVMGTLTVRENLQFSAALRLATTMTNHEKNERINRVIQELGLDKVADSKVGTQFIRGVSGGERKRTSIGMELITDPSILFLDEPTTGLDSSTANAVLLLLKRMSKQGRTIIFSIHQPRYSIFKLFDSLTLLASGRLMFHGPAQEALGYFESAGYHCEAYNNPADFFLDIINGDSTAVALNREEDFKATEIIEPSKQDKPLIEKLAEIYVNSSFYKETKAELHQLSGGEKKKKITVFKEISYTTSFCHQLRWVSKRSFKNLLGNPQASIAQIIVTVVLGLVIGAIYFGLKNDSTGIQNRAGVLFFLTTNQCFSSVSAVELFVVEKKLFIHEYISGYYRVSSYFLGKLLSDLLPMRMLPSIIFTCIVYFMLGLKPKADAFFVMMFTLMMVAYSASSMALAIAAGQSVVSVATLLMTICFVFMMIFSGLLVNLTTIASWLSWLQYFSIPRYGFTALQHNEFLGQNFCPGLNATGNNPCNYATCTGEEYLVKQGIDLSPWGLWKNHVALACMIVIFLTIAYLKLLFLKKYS
Excerpt: as §1

[3] = both sexes, SD, rat, iv, 5 mg/kg
[4] = both sexes, SD, rat, po, 1 mg/kg
[5] = both sexes, SD, rat, po, 5 mg/kg
[6] = both sexes, SD, rat, po, 25 mg/kg
[7] = both sexes, beagle, dog, iv, 0.5 mg/kg
[8] = both sexes, beagle, dog, po, 0.5 mg/kg
[9] = both sexes, beagle, dog, po, 3.5 mg/kg
[10] = both sexes, beagle, dog, po, 25 mg/kg

Chain of P-gp (P08183 whole entry): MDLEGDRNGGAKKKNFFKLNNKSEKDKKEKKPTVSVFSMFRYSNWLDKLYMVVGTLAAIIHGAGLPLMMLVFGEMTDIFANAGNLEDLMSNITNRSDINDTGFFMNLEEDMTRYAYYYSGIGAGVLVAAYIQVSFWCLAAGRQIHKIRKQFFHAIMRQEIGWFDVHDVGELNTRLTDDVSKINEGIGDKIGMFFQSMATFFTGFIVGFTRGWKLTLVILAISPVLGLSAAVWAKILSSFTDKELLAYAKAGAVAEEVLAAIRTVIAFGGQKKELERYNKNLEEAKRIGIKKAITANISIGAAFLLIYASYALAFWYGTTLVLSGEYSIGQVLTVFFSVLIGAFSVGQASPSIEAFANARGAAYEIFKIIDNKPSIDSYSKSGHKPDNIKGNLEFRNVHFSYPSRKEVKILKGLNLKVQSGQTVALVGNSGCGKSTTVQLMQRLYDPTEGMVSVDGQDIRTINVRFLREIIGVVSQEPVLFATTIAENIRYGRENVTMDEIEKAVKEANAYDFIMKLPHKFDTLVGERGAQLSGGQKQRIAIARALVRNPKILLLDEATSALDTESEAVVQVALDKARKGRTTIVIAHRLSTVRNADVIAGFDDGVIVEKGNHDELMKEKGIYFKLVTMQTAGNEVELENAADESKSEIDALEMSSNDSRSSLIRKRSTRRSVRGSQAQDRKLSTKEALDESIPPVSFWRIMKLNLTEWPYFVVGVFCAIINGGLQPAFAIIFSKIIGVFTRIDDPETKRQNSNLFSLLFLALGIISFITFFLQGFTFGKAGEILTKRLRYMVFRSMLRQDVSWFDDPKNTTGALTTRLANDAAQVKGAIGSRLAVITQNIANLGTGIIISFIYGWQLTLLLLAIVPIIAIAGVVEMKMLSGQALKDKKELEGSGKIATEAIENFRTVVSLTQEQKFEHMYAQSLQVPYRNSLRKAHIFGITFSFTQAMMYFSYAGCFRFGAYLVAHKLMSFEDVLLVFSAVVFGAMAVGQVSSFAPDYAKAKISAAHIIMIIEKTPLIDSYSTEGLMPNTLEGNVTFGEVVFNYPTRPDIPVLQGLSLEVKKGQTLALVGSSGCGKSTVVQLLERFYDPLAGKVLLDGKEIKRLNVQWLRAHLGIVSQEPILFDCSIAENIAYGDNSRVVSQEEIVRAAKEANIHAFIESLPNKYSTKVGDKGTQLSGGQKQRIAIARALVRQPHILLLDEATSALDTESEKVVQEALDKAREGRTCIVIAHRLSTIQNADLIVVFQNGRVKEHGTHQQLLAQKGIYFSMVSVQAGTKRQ

In the case of `C[C@H](Nc1ncnc(N)c1C#N)c1cc2ncc(Cl)n2nc1-c1ccccc1` [Amdizalisib], the AUC(0-inf) [1, 3] is reported as 13900 ng·h/mL, the AUC(0-t) [1, 3] is reported as 13900 ng·h/mL and the MRT [1, 3] is reported as 4.6 ± 2.85 h. The Vd [1, 3] was 1.68 ± 0.153 L/kg, the clearance [1, 3] was 9.12 ± 6.31 mL/min/kg and the AUC(0-inf) [1, 4] was 1320 ng·h/mL. It also gave an AUC(0-t) [1, 4] of 1140 ng·h/mL, a Cmax [1, 4] of 115 ± 79.1 ng/mL and an MRT [1, 4] of 7.9 ± 5.28 h. The AUC(0-inf) [1, 5] was 6130 ng·h/mL, the AUC(0-t) [1, 5] was 6040 ng·h/mL and the Cmax [1, 5] was 622 ± 257 ng/mL. The MRT [1, 5] was 7.84 ± 5.51 h, the Tmax [1, 5] was 1.5 ± 0.548 h and the half-life [1, 5] was 5.11 ± 4 h. The AUC(0-inf) [1, 6] was 52600 ng·h/mL, the AUC(0-t) [1, 6] was 52400 ng·h/mL and the Cmax [1, 6] was 3350 ng/mL. It also gave an MRT [1, 6] of 11 ± 6.61 h, a half-life [1, 6] of 5.62 ± 2.86 h and a half-life ([1]; both sexes, SD rat, fasted, IV 5 mg/kg, read-out: t1/2 (converted)) of 3.61 ± 2.01 h. For the same compound, the Tmax ([1]; both sexes, SD rat, fasted, PO 1 mg/kg, read-out: Tmax) was 2.67 ± 1.75 h, the half-life ([1]; both sexes, SD rat, fasted, PO 1 mg/kg, read-out: t1/2 (converted)) was 4.94 ± 3.35 h and the Tmax ([1]; both sexes, SD rat, fasted, PO 25 mg/kg, read-out: Tmax) was 4.17 ± 2.23 h. The “CL as % of the hepatic blood flow” value ([1]; both, Sprague-Dawley, rat, iv) was 16.6%, the “Enzyme activity Percent of PC (%)” value (CYP2B6; 1 µM) was 2.60% and the “Enzyme activity Percent of PC (%)” value (CYP2B6; 3 µM) was 3.00%. For the same compound, the “Enzyme activity Percent of PC (%)” value (CYP2B6; 10 µM) was 3.10%, the “Enzyme activity Percent of PC (%)” value (CYP2B6; 20 µM) was -11.1% and the “Enzyme activity Percent of PC (%)” value (CYP2B6; 30 µM) was -13.3%. It also gave an AUC(0-t) [2, 7] of 750 ± 272 ng·h/mL, a Vd [2, 7] of 2.4 ± 0.354 L/kg and an AUC(0-inf) [2, 7] of 772 ± 272 ng·h/mL. It also gave an MRT ([2]; both sexes, beagle, dog, iv, 0.5 mg/kg, Beagle dog, fasted, IV 0.5 mg/kg, read-out: MRT) of 3.65 ± 1.29 h, a half-life ([2]; both sexes, beagle, dog, iv, 0.5 mg/kg, Beagle dog, fasted, IV 0.5 mg/kg, read-out: t1/2 (converted)) of 3.02 ± 1.27 h and an MRT [2, 8] of 9.66 ± 6.73 h. For the same compound, the Tmax [2, 8] was 1.92 ± 0.665 h, the half-life [2, 8] was 7.22 ± 6.55 h and the AUC(0-inf) [2, 8] was 359 ± 259 ng·h/mL. For the same compound, the Cmax ([2]; both sexes, beagle, dog, po, 0.5 mg/kg, Cmax) was 42.4 ± 21.8 ng/mL, the AUC(0-t) [2, 9] was 5540 ng·h/mL and the MRT [2, 9] was 13.8 ± 4.85 h. It also gave a Tmax [2, 9] of 6.25 ± 9.11 h, an AUC(0-inf) [2, 9] of 5660 ng·h/mL and a half-life ([2]; both sexes, beagle, dog, po, 3.5 mg/kg, Beagle dog, fasted, PO 3.5 mg/kg, read-out: t1/2 (converted)) of 6.08 ± 1.48 h. For the same compound, the AUC(0-t) [2, 10] was 66500 ng·h/mL, the AUC(0-inf) [2, 10] was 72800 ng·h/mL and the MRT ([2]; both sexes, beagle, dog, po, 25 mg/kg, Beagle dog, fasted, PO 25 mg/kg, read-out: MRT) was 31.8 ± 10.2 h. For the same compound, the Tmax ([2]; both sexes, beagle, dog, po, 25 mg/kg, Beagle dog, fasted, PO 25 mg/kg, read-out: Tmax) was 15 ± 10.4 h, the half-life ([2]; both sexes, beagle, dog, po, 25 mg/kg, Beagle dog, fasted, PO 25 mg/kg, read-out: t1/2 (converted)) was 13.9 ± 5.07 h and the Tmax ([2]; both sexes, beagle, dog, po, 25 mg/kg, Beagle dog, fed, PO 25 mg/kg, read-out: Tmax) was 7 ± 8.34 h. For the same compound, the half-life ([2]; both sexes, beagle, dog, po, 25 mg/kg, Beagle dog, fed, PO 25 mg/kg, read-out: t1/2 (converted)) was 17.4 ± 2.49 h, the clearance ([2]; both sexes, Beagle dog, fasted, IV 0.5 mg/kg) was 11.8 ± 3.61 mL/min/kg and the Cmax ([2]; both sexes, Beagle dog, fasted, PO 3.5 mg/kg, read-out: Cmax) was 347 ± 105 ng/mL. For the same compound, the “CL as % of the hepatic blood flow” value ([2]; both, beagle, dog, iv) was 38.1%, the Cmax ([2]; both, beagle, dog, po, 25 mg/kg) was 2,159 ± 1,070 ng/mL and the IC50 (P-gp) was 22.9 µM. For the same compound, the inhibition at 60 min, 0.5 µM (P-gp; human) was -3.22%, the inhibition at 60 min, 2 µM (P-gp; human) was 1.75% and the inhibition at 60 min, 5 µM (P-gp; human) was 17%. The inhibition at 60 min, 20 µM (P-gp; human) was 46.5%, the inhibition at 60 min, 40 µM (P-gp; human) was 58.4% and the inhibition at 60 min, 60 µM (P-gp; human) was 75.9%. The inhibition at 60 min, 80 µM (P-gp; human) was 83.6%, the inhibition at 60 min, 0.1 µM (BCRP) was 28.5% and the inhibition at 60 min, 0.5 µM (BCRP) was 34.2%. The inhibition at 60 min, 2 µM (BCRP) was 21.3%, the inhibition at 60 min, 5 µM (BCRP) was 24.2% and the inhibition at 60 min, 10 µM (BCRP) was 43.6%. It also gave an inhibition at 60 min, 40 µM (BCRP) of 52.9%, an inhibition at 60 min, 60 µM (BCRP) of 66.4% and an inhibition at 60 min, 80 µM (BCRP) of 52%.
